pIC50, pKi: −log10 of the molar value.
How the values were obtained:
Substance-K receptor = target: T1, Substance-K receptor (Homo sapiens, UniProt P21452); format: cell membranes, CHO, Membrane; conditions: for IC50 / Ki: cho; for pIC50: read-out: IC50; for pKi: read-out: Ki; as to all read-outs here: in other assays of this panel Not Active means under 50% inhibition at 10 µM
T1 sequence (P21452 whole entry): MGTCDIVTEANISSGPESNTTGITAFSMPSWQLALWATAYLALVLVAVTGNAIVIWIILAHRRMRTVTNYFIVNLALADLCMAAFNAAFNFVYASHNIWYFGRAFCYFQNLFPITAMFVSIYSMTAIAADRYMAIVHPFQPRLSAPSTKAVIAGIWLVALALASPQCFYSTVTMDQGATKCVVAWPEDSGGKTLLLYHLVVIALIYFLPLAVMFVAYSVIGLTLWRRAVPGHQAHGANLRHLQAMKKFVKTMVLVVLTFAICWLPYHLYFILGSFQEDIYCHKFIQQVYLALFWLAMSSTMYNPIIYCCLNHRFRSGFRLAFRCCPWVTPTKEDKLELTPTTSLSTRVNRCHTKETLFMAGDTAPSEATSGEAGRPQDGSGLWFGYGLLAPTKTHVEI

[1] = DRUGMATRIX: Glutamate, NMDA, Phencyclidine radioligand binding (ligand: [3H] TCP); format: cell membranes, Rattus norvegicus, Wistar, Cerebral cortex, Membrane; conditions: Not Active = under 50% inhibition at 10 µM
[2] = DRUGMATRIX: Interleukin IL-1 radioligand binding (ligand: [125I] interleukin 1beta); format: cell membranes, Membrane; conditions: nih3t3; Not Active = under 50% inhibition at 10 µM
Melanocortin receptor 3 = Melanocortin receptor 3 (Homo sapiens, UniProt P41968); format: cell membranes, HEK293, Membrane; conditions: hek293; also: in other assays of this panel Not Active means under 50% inhibition at 10 µM
Sequence of Melanocortin receptor 3 (P41968 whole entry): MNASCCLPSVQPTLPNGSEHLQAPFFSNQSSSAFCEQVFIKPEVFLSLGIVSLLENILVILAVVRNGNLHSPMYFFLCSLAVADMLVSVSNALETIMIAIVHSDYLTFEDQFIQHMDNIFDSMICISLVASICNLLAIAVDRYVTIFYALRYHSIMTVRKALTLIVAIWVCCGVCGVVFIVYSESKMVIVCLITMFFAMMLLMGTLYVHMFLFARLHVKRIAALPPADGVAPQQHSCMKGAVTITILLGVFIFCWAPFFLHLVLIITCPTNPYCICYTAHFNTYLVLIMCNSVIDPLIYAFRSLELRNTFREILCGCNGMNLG

[3] = target: T2, Muscarinic acetylcholine receptor M4 (Homo sapiens, UniProt P08173); format: cell membranes, CHO-K1, Membrane; conditions: for IC50 / Ki: cho-k1; as to all read-outs here: in other assays of this panel Not Active means under 50% inhibition at 10 µM
T2 sequence (P08173 whole entry): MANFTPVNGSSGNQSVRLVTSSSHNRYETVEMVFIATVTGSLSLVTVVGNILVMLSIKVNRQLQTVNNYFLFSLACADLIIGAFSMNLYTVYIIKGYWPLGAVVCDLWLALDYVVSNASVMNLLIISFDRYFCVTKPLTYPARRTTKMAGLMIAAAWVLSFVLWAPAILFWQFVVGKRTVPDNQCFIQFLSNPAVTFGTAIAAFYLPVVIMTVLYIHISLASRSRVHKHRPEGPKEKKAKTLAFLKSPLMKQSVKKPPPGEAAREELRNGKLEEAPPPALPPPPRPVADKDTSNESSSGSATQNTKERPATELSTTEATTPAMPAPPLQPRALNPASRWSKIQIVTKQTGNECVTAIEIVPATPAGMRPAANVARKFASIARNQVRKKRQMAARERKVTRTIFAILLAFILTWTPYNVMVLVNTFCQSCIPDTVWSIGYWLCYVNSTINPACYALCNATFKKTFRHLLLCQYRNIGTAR

[4] = target: T3, Neuropeptide Y receptor type 1 (Homo sapiens, UniProt P25929); format: cell membranes, Membrane; conditions: sk-n-mc; also: in other assays of this panel Not Active means under 50% inhibition at 10 µM
T3 sequence (P25929 whole entry): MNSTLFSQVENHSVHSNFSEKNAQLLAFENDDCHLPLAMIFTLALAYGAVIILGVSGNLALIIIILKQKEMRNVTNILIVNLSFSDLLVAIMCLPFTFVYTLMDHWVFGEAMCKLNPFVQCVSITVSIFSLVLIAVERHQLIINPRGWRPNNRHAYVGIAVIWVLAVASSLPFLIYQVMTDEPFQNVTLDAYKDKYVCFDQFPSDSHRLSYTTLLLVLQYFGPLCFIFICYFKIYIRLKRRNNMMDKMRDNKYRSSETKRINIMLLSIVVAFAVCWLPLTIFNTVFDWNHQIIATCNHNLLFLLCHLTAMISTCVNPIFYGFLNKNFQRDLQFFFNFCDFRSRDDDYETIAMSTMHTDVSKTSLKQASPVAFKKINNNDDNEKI

[5] = target: Tyrosine-protein kinase Lck (Homo sapiens, UniProt P06239); assay: DRUGMATRIX: Protein Tyrosine Kinase, LCK enzyme inhibition (substrate: Poly(Glu:Tyr)); format: cell-based, Insect cells; conditions: insect cells; Not Active = under 50% inhibition at 10 µM
Sequence of Tyrosine-protein kinase Lck (P06239 whole entry): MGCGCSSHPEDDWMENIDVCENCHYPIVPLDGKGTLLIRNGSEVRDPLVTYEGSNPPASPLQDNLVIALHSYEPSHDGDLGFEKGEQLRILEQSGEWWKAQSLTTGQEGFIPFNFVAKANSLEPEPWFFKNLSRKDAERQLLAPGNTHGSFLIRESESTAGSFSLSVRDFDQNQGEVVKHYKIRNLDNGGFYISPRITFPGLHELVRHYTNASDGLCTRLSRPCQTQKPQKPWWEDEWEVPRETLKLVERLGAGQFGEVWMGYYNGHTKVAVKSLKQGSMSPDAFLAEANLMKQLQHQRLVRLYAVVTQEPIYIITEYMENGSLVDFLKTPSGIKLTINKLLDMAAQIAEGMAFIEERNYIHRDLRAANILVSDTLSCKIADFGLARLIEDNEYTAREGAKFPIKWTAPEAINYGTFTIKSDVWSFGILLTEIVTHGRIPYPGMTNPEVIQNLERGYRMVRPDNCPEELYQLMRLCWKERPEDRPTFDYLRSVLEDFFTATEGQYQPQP

Cytochrome P450 1A2 = target: T4, Cytochrome P450 1A2 (Homo sapiens, UniProt P05177); conditions: bti-tn-5b1-4; also: in other assays of this panel Not Active means under 50% inhibition at 10 µM
T4 sequence (P05177 whole entry): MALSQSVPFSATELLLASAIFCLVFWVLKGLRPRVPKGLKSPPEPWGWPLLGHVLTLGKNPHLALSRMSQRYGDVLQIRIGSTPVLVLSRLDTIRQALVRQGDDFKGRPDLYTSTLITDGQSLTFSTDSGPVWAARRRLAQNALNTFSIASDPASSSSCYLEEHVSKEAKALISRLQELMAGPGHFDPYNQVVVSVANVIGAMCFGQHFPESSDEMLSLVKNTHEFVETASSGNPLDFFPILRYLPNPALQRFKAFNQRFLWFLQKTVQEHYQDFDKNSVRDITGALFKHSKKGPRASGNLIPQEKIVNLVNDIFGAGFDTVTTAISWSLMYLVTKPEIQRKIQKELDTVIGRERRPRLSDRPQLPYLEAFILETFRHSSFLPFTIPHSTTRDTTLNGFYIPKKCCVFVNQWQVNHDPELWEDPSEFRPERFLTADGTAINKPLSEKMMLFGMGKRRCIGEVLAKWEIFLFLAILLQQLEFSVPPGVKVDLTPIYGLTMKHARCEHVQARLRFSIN

OC[C@H]1O[C@@H]2O[C@H]3[C@H](O)[C@@H](O)[C@@H](O[C@H]4[C@H](O)[C@@H](O)[C@@H](O[C@H]5[C@H](O)[C@@H](O)[C@@H](O[C@H]6[C@H](O)[C@@H](O)[C@@H](O[C@H]7[C@H](O)[C@@H](O)[C@@H](O[C@H]1[C@H](O)[C@H]2O)O[C@@H]7CO)O[C@@H]6CO)O[C@@H]5CO)O[C@@H]4CO)O[C@@H]3CO [ALFADEX]
Not Active: IC50 (Substance-K receptor) | IC50 [1] | Ki [1] | IC50 [2] | Ki [2] | IC50 (Melanocortin receptor 3) | IC50 [3] | IC50 [4] | IC50 [5] | IC50 (Cytochrome P450 1A2) | Ki (Cytochrome P450 1A2)

c1ccc2sc(SSc3nc4ccccc4s3)nc2c1 [BENZOTHIAZYL DISULFIDE]
Not Active: IC50 (Substance-K receptor) | IC50 [1] | Ki [1] | IC50 [2] | Ki [2] | IC50 (Melanocortin receptor 3) | IC50 [3] | IC50 [4] | IC50 [5] | IC50 (Cytochrome P450 1A2) | Ki (Cytochrome P450 1A2)

CNC[C@H](O)c1ccc(O)c(O)c1 [EPINEPHRINE]
Not Active: IC50 (Substance-K receptor) | IC50 [1] | Ki [1] | IC50 [2] | Ki [2] | IC50 (Melanocortin receptor 3) | IC50 [3] | IC50 [4] | IC50 [5] | IC50 (Cytochrome P450 1A2) | Ki (Cytochrome P450 1A2)

POVIDONE
Not Active: IC50 (Substance-K receptor) | Ki (Substance-K receptor) | IC50 [1] | Ki [1] | IC50 [2] | Ki [2] | IC50 (Melanocortin receptor 3) | Ki (Melanocortin receptor 3) | IC50 [3] | Ki [3] | IC50 [4] | Ki [4] | IC50 [5] | Ki [5] | IC50 (Cytochrome P450 1A2) | Ki (Cytochrome P450 1A2)

C=CCO [ALLYL ALCOHOL]
Not Active: IC50 (Substance-K receptor) | IC50 [1] | Ki [1] | IC50 [2] | Ki [2] | IC50 (Melanocortin receptor 3) | IC50 [3] | IC50 [4] | IC50 [5] | IC50 (Cytochrome P450 1A2) | Ki (Cytochrome P450 1A2)

CHROMIC CHLORIDE
Not Active: IC50 (Substance-K receptor) | Ki (Substance-K receptor) | IC50 [1] | Ki [1] | IC50 [2] | Ki [2] | IC50 (Melanocortin receptor 3) | Ki (Melanocortin receptor 3) | IC50 [3] | Ki [3] | IC50 [4] | Ki [4] | IC50 [5] | Ki [5] | IC50 (Cytochrome P450 1A2) | Ki (Cytochrome P450 1A2)

Clc1cc(Cl)c(OCC#CI)cc1Cl [HALOPROGIN]
6.31: pKi (Substance-K receptor)
5.83: pIC50 (Substance-K receptor)
Not Active: IC50 [1] | Ki [1] | IC50 [2] | Ki [2] | IC50 (Melanocortin receptor 3) | IC50 [3] | IC50 [4] | IC50 [5] | IC50 (Cytochrome P450 1A2) | Ki (Cytochrome P450 1A2)

C[N+](C)(C)CCOP(=O)([O-])OC[C@H](O)CO
Not Active: IC50 (Substance-K receptor) | IC50 [1] | Ki [1] | IC50 [2] | Ki [2] | IC50 (Melanocortin receptor 3) | IC50 [3] | IC50 [4] | IC50 [5] | IC50 (Cytochrome P450 1A2) | Ki (Cytochrome P450 1A2)

COc1ccc(C[C@H](N)C(=O)N[C@H]2[C@@H](O)[C@H](n3cnc4c(N(C)C)ncnc43)O[C@@H]2CO)cc1 [PUROMYCIN]
Not Active: IC50 (Substance-K receptor) | IC50 [1] | Ki [1] | IC50 [2] | Ki [2] | IC50 (Melanocortin receptor 3) | IC50 [3] | IC50 [4] | IC50 [5] | IC50 (Cytochrome P450 1A2) | Ki (Cytochrome P450 1A2)

ClC1=C(Cl)[C@]2(Cl)[C@@H]3[C@@H]4C[C@@H]([C@H]5O[C@@H]45)[C@@H]3[C@@]1(Cl)C2(Cl)Cl [DIELDRIN]
Not Active: IC50 (Substance-K receptor) | IC50 [1] | Ki [1] | IC50 [2] | Ki [2] | IC50 (Melanocortin receptor 3) | IC50 [3] | IC50 [4] | IC50 [5] | IC50 (Cytochrome P450 1A2) | Ki (Cytochrome P450 1A2)

CARBOXYMETHYLCELLULOSE
Not Active: IC50 (Substance-K receptor) | Ki (Substance-K receptor) | IC50 [1] | Ki [1] | IC50 [2] | Ki [2] | IC50 (Melanocortin receptor 3) | Ki (Melanocortin receptor 3) | IC50 [3] | Ki [3] | IC50 [4] | Ki [4] | IC50 [5] | Ki [5] | IC50 (Cytochrome P450 1A2) | Ki (Cytochrome P450 1A2)

CC(CN1c2ccccc2Sc2ccccc21)N(C)C (stereo not given) [PROMETHAZINE]
8.12: pIC50 ([3]; read-out: IC50)
Not Active: IC50 (Substance-K receptor) | IC50 [1] | Ki [1] | IC50 [2] | Ki [2] | IC50 (Melanocortin receptor 3) | IC50 [4] | IC50 [5] | IC50 (Cytochrome P450 1A2) | Ki (Cytochrome P450 1A2)
8.98: pKi ([3]; read-out: Ki)

NCC(CC(=O)O)c1ccc(Cl)cc1 (stereo not given) [BACLOFEN]
Not Active: IC50 (Substance-K receptor) | IC50 [1] | Ki [1] | IC50 [2] | Ki [2] | IC50 (Melanocortin receptor 3) | IC50 [3] | IC50 [4] | IC50 [5] | IC50 (Cytochrome P450 1A2) | Ki (Cytochrome P450 1A2)

CN(CCOc1ccc(C[C@H](Nc2ccccc2C(=O)c2ccccc2)C(=O)O)cc1)c1ccccn1
4.84: pIC50 (Substance-K receptor)
5.32: pKi (Substance-K receptor)
Not Active: IC50 [1] | Ki [1] | IC50 [2] | Ki [2] | IC50 (Melanocortin receptor 3) | IC50 [3] | IC50 [4] | IC50 [5] | IC50 (Cytochrome P450 1A2) | Ki (Cytochrome P450 1A2)

COPPER(II) OXIDE
Not Active: IC50 (Substance-K receptor) | Ki (Substance-K receptor) | IC50 [1] | Ki [1] | IC50 [2] | Ki [2] | IC50 (Melanocortin receptor 3) | Ki (Melanocortin receptor 3) | IC50 [3] | Ki [3] | IC50 [4] | Ki [4] | IC50 [5] | Ki [5] | IC50 (Cytochrome P450 1A2) | Ki (Cytochrome P450 1A2)

Cl.NC[C@H]1CC[C@H](C(=O)Oc2ccc(CCC(=O)O)cc2)CC1 [CETRAXATE HYDROCHLORIDE]
Not Active: IC50 (Substance-K receptor) | IC50 [1] | Ki [1] | IC50 [2] | Ki [2] | IC50 (Melanocortin receptor 3) | IC50 [3] | IC50 [4] | IC50 [5] | IC50 (Cytochrome P450 1A2) | Ki (Cytochrome P450 1A2)

COc1ccccc1OCCNCC(O)COc1cccc2[nH]c3ccccc3c12 (stereo not given) [CARVEDILOL]
Not Active: IC50 (Substance-K receptor) | IC50 [1] | Ki [1] | IC50 [2] | Ki [2] | IC50 (Melanocortin receptor 3) | IC50 [3] | IC50 [4] | IC50 [5] | IC50 (Cytochrome P450 1A2) | Ki (Cytochrome P450 1A2)

Source: ChEMBL document CHEMBL1909046, “DrugMatrix in vitro pharmacology data”
